# Data taken from ChEMBL document CHEMBL5500393, “Discovery and Optimization of Novel SaFabI Inhibitors as Specific Therapeutic Agents for MRSA Infection” (J Med Chem, 2024).
# The source made the active and inactive calls. The calls are words filed in the database; no cut-off is given here.
# Key:
# [1] = system: Staphylococcus aureus; experiment: Antimicrobial activity against methicillin-susceptible Staphylococcus aureus ATCC25923 measured after 24 hrs by CLSI protocol based microdilution method; format: functional
# [2] = system: Staphylococcus aureus; experiment: In vivo antibacterial activity against methicilin-resistant Staphylococcus aureus ATCC33591 infected in BALB/c mouse skin infection model assessed as restoration of cell morphology at 5 mg/kg administered daily for 4 days by H and E staining based analysis; format: functional, organism-based; details: time 4.0 day
# [3] = system: Staphylococcus aureus; experiment: Antimicrobial activity against Staphylococcus aureus RN4220 harbouring pCM-sfgfp::fabi (promoter fabi) measured after 24 hrs by CLSI protocol based microdilution method; format: functional
# [4] = system: Staphylococcus aureus; experiment: In vivo antibacterial activity against methicilin-resistant Staphylococcus aureus ATCC33591 infected in BALB/c mouse skin infection model assessed as log reduction in bacterial count at 5 mg/kg administered daily for 4 days; format: functional; details: time 4 day
# [5] = system: Staphylococcus aureus; experiment: Antimicrobial activity against […] Staphylococcus aureus ATCC33591 assessed as frequency of spontaneous resistance at 8 times MIC measured after 48 hrs by; format: functional
# [6] = Metabolic stability in mouse liver microsomes assessed as half life at 1 uM measured upto 120 mins in presence of NADPH by LC-MS analysis; format: ADME, Microsome
# [7] = system: Enterococcus faecium; experiment: Antimicrobial activity against Enterococcus faecium ATCC19434 measured after 24 hrs by CLSI protocol based microdilution method; format: functional
# [8] = Clearance in female Sprague-Dawley rat at 5 mg/kg, iv measured upto 24 hrs by LC-MS analysis; format: ADME, organism-based; details: in vivo
# [9] = system: Pseudomonas aeruginosa; experiment: Antimicrobial activity against Pseudomonas aeruginosa PAO1 measured after 24 hrs by CLSI protocol based microdilution method; format: functional
# [10] = system: Staphylococcus aureus; experiment: Antimicrobial activity against […] Staphylococcus aureus ATCC33591 measured after 24 hrs by CLSI protocol based microdilution method; format: functional
# [11] = system: Acinetobacter baumannii; experiment: Antimicrobial activity against Acinetobacter baumannii ATCC19606 measured after 24 hrs by CLSI protocol based microdilution method; format: functional
# [12] = system: Staphylococcus aureus; experiment: Antimicrobial activity against […] Staphylococcus aureus ATCC33591 assessed as reduction in lipid content measured after 4 hrs by microplate reader based analysis; format: functional
# [13] = system: Staphylococcus aureus; experiment: In vivo antibacterial activity against methicilin-resistant Staphylococcus aureus ATCC33591 infected in BALB/c mouse skin infection model assessed as normal morphology at 5 mg/kg administered daily for 4 days by H and E staining based analysis; format: functional, organism-based; details: time 4.0 day
# [14] = system: Staphylococcus aureus; experiment: Antimicrobial activity against methicillin-susceptible Staphylococcus aureus ATCC29213 measured after 24 hrs by CLSI protocol based microdilution method; format: functional
# [15] = system: Staphylococcus aureus; experiment: Antimicrobial activity against […] Staphylococcus aureus USA300 measured after 24 hrs by CLSI protocol based microdilution method; format: functional
# [16] = system: Escherichia coli; experiment: Antimicrobial activity against Escherichia coli ATCC25922 measured after 24 hrs by CLSI protocol based microdilution method; format: functional
# [17] = system: Staphylococcus aureus; experiment: Antimicrobial activity against […] Staphylococcus aureus ATCC43300 measured after 24 hrs by CLSI protocol based microdilution method; format: functional
# [18] = AUC (0 to t) in female Sprague-Dawley rat at 5 mg/kg, iv measured upto 24 hrs by LC-MS analysis; format: ADME, organism-based; details: in vivo
# [19] = Cmax in female Sprague-Dawley rat at 20 mg/kg, po measured upto 24 hrs by LC-MS analysis; format: ADME, organism-based; details: in vivo
# [20] = biological target: T1, Enoyl-[acyl-carrier-protein] reductase [NADPH] FabI (Staphylococcus aureus, UniProt Q6GI75); experiment: Inhibition of N-terminal his 6 tagged Staphylococcus aureus Fabi (1 to […] residues) expressed in Escherichia coli BL21 incubated for 30 mins in presence of NADPH by fluorescence based microplate reader analysis
# T1 sequence (Q6GI75 whole entry): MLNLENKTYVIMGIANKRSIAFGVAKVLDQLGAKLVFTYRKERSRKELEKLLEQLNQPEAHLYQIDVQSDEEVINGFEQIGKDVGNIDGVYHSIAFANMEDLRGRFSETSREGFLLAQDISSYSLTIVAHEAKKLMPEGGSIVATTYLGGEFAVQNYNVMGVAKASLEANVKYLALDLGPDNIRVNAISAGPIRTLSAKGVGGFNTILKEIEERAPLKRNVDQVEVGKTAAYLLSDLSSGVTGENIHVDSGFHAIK
# [21] = AUC (0 to t) in female Sprague-Dawley rat at 20 mg/kg, po measured upto 24 hrs by LC-MS analysis; format: ADME, organism-based; details: in vivo
# [22] = system: Staphylococcus aureus; experiment: In vivo antibacterial activity against methicilin-resistant Staphylococcus aureus ATCC33591 infected in BALB/c mouse skin infection model assessed as reduction in number of inflammatory cells at 5 mg/kg administered daily for 4 days by H and E staining based analysis; format: functional, organism-based; details: time 4.0 day
# [23] = system: Staphylococcus aureus; experiment: Antimicrobial activity against Staphylococcus aureus RN4220 harbouring pCM-sfgfp::fabi (promoter-sarA) measured after 24 hrs by CLSI protocol based microdilution method; format: functional
# [24] = system: Staphylococcus aureus; experiment: In vivo antibacterial activity against methicilin-resistant Staphylococcus aureus ATCC33591 infected in BALB/c mouse skin infection model assessed as reduction in skin lesions at 5 mg/kg administered daily for 4 days (reference value: 50.1 mm2); format: functional; details: time 4 day
# [25] = system: Staphylococcus aureus; experiment: Antimicrobial activity against […] Staphylococcus aureus NRS271 measured after 24 hrs by CLSI protocol based microdilution method; format: functional
# [26] = Metabolic stability in human liver microsomes assessed as half life at 1 uM measured upto 120 mins in presence of NADPH by LC-MS analysis; format: ADME, Microsome
# [27] = system: Staphylococcus aureus; experiment: Antimicrobial activity against […] Staphylococcus aureus ATCC33591 assessed as frequency of spontaneous resistance at 4 times MIC measured after 48 hrs by; format: functional
# [28] = Half life in female Sprague-Dawley rat at 5 mg/kg, iv measured upto 24 hrs by LC-MS analysis; format: ADME, organism-based; details: in vivo
# [29] = system: Staphylococcus aureus; experiment: Bactericidal activity against […] Staphylococcus aureus ATCC33591 assessed as log reduction in bacterial count measured within 24 hrs by time-kill assay; format: functional
# [30] = system: Candida albicans; experiment: Antimicrobial activity against Candida albicans SC5314 measured after 48 hrs by CLSI protocol based microdilution method; format: functional
# [31] = system: Staphylococcus aureus; experiment: In vivo antibacterial activity against methicilin-resistant Staphylococcus aureus ATCC33591 infected in BALB/c mouse skin infection model assessed as reduction in bacterial load at 5 mg/kg administered daily for 4 days; format: functional; details: time 4 day
# [32] = system: Staphylococcus aureus; experiment: Antimicrobial activity against wild type Staphylococcus aureus RN4220 measured after 24 hrs by CLSI protocol based microdilution method; format: functional
# [33] = Metabolic stability in mouse liver microsomes assessed as intrinsic clearance at 1 uM measured upto 120 mins in presence of NADPH by LC-MS analysis; format: ADME, Microsome; details: read-out: CLH
# [34] = Clearance in female Sprague-Dawley rat at 20 mg/kg, po measured upto 24 hrs by LC-MS analysis; format: ADME, organism-based; details: in vivo
# [35] = system: Staphylococcus aureus; experiment: In vivo antibacterial activity against methicilin-resistant Staphylococcus aureus ATCC33591 infected in BALB/c mouse skin infection model assessed as decrease in lesion size at 5 mg/kg administered daily for 4 days (reference value: 43.4 mm2); format: functional; details: time 4 day
# [36] = Metabolic stability in human liver microsomes assessed as intrinsic clearance at 1 uM measured upto 120 mins in presence of NADPH by LC-MS analysis; format: ADME, Microsome; details: read-out: CLH
# [37] = Oral bioavailability in female Sprague-Dawley rat at 20 mg/kg measured upto 24 hrs by LC-MS analysis; format: ADME, organism-based; details: in vivo
# [38] = system: Staphylococcus aureus; experiment: In vivo antibacterial activity against methicilin-resistant Staphylococcus aureus ATCC33591 infected in BALB/c mouse skin infection model assessed as normal skin structure at 5 mg/kg administered daily for 4 days by H and E staining based analysis; format: functional, organism-based; details: time 4.0 day
# [39] = system: Enterococcus faecalis; experiment: Antimicrobial activity against Enterococcus faecalis ATCC29212 measured after 24 hrs by CLSI protocol based microdilution method; format: functional
# [40] = Tmax in female Sprague-Dawley rat at 20 mg/kg, po measured upto 24 hrs by LC-MS analysis; format: ADME, organism-based; details: in vivo
# [41] = Half life in female Sprague-Dawley rat at 20 mg/kg, po measured upto 24 hrs by LC-MS analysis; format: ADME, organism-based; details: in vivo
# [42] = system: Staphylococcus aureus; experiment: Antimicrobial activity against Staphylococcus aureus RN4220 harbouring pCM-sfgfp measured after 24 hrs by CLSI protocol based microdilution method; format: functional
# [43] = Cmax in female Sprague-Dawley rat at 5 mg/kg, iv measured upto 24 hrs by LC-MS analysis; format: ADME, organism-based; details: in vivo
# [44] = system: Staphylococcus aureus; experiment: Antimicrobial activity against […] Staphylococcus aureus ATCC33591 assessed as frequency of spontaneous resistance at 16 times MIC measured after 48 hrs by; format: functional
# [45] = system: Staphylococcus aureus; experiment: In vivo antibacterial activity against methicilin-resistant Staphylococcus aureus ATCC33591 infected in BALB/c mouse skin infection model assessed as reduction in area of injury at 5 mg/kg administered daily for 4 days by H and E staining based analysis; format: functional, organism-based; details: time 4.0 day
smiles,measurement,setting,value
Cc1c(CN(C)C(=O)/C=C/c2cnc3c(c2)CCC(=O)N3)oc2ccccc12 [AFN-1252],MIC,[1],0.008 µg/mL
same,Activity,[2],Active
same,MIC,[3],0.25 µg/mL
same,log(activity),[4],7.8
same,Activity,[5],5.9 10^-10No_unit
same,half-life at 1 µM,[6],17.1 min
same,MIC,[7],> 32 µg/mL
same,clearance,[8],30 mL/min/kg
same,MIC,[9],> 32 µg/mL
same,MIC,[10],0.008 µg/mL
same,MIC,[11],> 32 µg/mL
same,MIC,[12],0.008 µg/mL
same,Activity,[13],Active
same,MIC,[14],0.008 µg/mL
same,MIC,[15],0.016 µg/mL
same,MIC,[16],> 32 µg/mL
same,MIC,[17],0.016 µg/mL
same,AUCt,[18],2713.1 ng·h/mL
same,Cmax,[19],711 ng/mL
same,IC50,[20],0.0423 µM
same,AUCt,[21],4414.1 ng·h/mL
same,Activity,[22],Active
same,MIC,[23],1 µg/mL
same,Activity,[24],13.7 mm2
same,MIC,[25],0.016 µg/mL
same,half-life at 1 µM,[26],34.5 min
same,Activity,[27],1.6 10^-9No_unit
same,t1/2,[28],402 min
same,log(activity),[29],5
same,MIC,[30],> 32 µg/mL
same,log(activity),[31],-7.1
same,MIC,[32],0.016 µg/mL
same,CLint scaled at 1 µM,[33],319 mL/min/kg
same,CL/F,[34],71.7 mL/min/kg
same,Activity,[35],10.4 mm2
same,CLint scaled at 1 µM,[36],50.4 mL/min/kg
same,bioavailability,[37],40.7%
same,Activity,[38],Active
same,MIC,[39],> 32 µg/mL
same,Tmax,[40],60 min
same,t1/2,[41],432 min
same,MIC,[42],0.016 µg/mL
same,Cmax,[43],1810 ng/mL
same,Activity,[44],<2.6 10^-10No_unit
same,Activity,[45],Active
